In patent US5519010A, “Sulfated polysaccharide, pharmaceutically acceptable salt thereof, process for preparing same and medicament containing same as effective component” (Taiho Pharmaceutical Co., Ltd., priority 1989, dated 1996):

Legend:
[1] = system: DIC model (thrombin injected into ICR mice); assay: Effect on DIC model (thrombin-induced fatality, survival rate); assay type: in vivo; details: dose 1 mg/kg i.v. one minute before 800 U/kg thrombin; after 24 hours
Experimental: D-HG, FGAG and heparin were tested for an effect on DIC model in accordance with the method described in Japan J. Pharmacol, 35, 203-227 (1984).
Used as D-HG was the sodium salt obtained in Example 16, as FGAG the sodium/potassium salt obtained in Reference Example 1 and as a heparin a sodium salt having a potency of 185.6 U/mg.
A 800 U/kg of thrombin was intravenously injected into ICR mice (10 to 15 mice a group). […] The D-HG sodium salt, FGAG sodium/potassium salt or heparin sodium salt was intravenously injected one minute before the administration of thrombin.

[2] = system: citric acid-containing plasma (activated partial thromboplastin time); assay: Anti-coagulation activity in human: x2APTT; assay type: biochemical; details: concentration required to double APTT of control
From the text: (§1) Using the citric acid-containing plasma obtained from more than 6 normal persons, the D-HG sodium salt (Example 16), a FGAG sodium/potassium salt and a heparin sodium salt were each observed for the activity in respect of anticoagulation parameters (μg/ml).

thrombin = assay: Anti-coagulation activity in human: IIaIC90 (thrombin time); assay type: biochemical; details: concentration for 90% inhibition of thrombin activity, from thrombin time; human plasma
Experimental: as §1
IIaIC90 is a concentration (μg/ml) for 90% inhibition of thrombin activity which was calculated by measuring the activity to prolong the thrombin time.

factor X = assay: Anti-coagulation activity in human: XaIC50 (decomposition of synthetic substrate S2222); assay type: biochemical; details: 50% inhibition of decomposition of synthetic substrate S2222
From the text: as §1
XaIC50 is a medicament concentration (μg/ml) for 50% inhibition of decomposition of synthetic substrate S2222 with a factor X.

factor VIII = assay: Anti-coagulation activity in human: VIII IC80 (factor VIII deficient plasma); assay type: biochemical; details: 80% inhibition of factor VIII, contact-activated coagulation time
Experimental: as §1
VIII IC80 is a medicament concentration (μg/ml) for 80% inhibition of factor VIII which was calculated by measuring the activity to prolong the contact-activated coagulation time in the presence of a small amount of factor VIII using a factor VIII deficient plasma.

[3] = system: thrombin generation (inactivation of prothrombin in contact-activated plasma); assay: Anti-coagulation activity in human: IIaGI (thrombin generation); assay type: biochemical; details: concentration required to double control's time for complete inactivation of prothrombin in contact-activated plasma
From the text: as §1
IIaGI is the concentration (μg/ml) required to double the control's time for complete inactivation of prothrombin in the contact-activated plasma. This represents an activity to inhibit the thrombin generation.

[4] = system: plasma-free washed platelet; assay: Inhibitory activity against thrombin-induced platelets aggregation; assay type: cell-based; details: 3 μg/ml; 0.1 U/ml thrombin; rabbit washed platelets (control 86.6)
Experimental: The result of addition of the D-HG sodium salt obtained in Example 16 or a heparin sodium salt having a potency of 185.6 U/mg was evaluated by observing the aggregation of platelets (expressed in an increase of light transmittance) caused by the addition of 0.1 U/ml of thrombin to a suspension of plasma-free washed platelet obtained from a rabbit.

heparin [Heparin sodium salt]
Survival rate [1]: 80%
x2APTT [2]: 1.2 µg/mL
IIaIC90 (thrombin): 0.3 µg/mL
XaIC50 (factor X): 3.4 µg/mL
VIII IC80 (factor VIII): 0.79 µg/mL
IIaGI [3]: 1.2 µg/mL
Light transmittance [4]: 80.2%
